In ChEMBL document CHEMBL1153273, “4-(Alkylthio)- and 4-(arylthio)-benzonitrile derivatives as androgen receptor antagonists for the topical suppression of sebum production” (Bioorg Med Chem Lett, 2009) one finds IC50 and Activity data, which are given here for 31 compounds.

Some results are limits rather than exact numbers.

Broadly, the IC50 is the point on the concentration scale where inhibition reaches its midpoint.

Test [1] concerns the target T1, Androgen receptor (Homo sapiens, UniProt P10275).
T1 sequence (P10275 whole entry): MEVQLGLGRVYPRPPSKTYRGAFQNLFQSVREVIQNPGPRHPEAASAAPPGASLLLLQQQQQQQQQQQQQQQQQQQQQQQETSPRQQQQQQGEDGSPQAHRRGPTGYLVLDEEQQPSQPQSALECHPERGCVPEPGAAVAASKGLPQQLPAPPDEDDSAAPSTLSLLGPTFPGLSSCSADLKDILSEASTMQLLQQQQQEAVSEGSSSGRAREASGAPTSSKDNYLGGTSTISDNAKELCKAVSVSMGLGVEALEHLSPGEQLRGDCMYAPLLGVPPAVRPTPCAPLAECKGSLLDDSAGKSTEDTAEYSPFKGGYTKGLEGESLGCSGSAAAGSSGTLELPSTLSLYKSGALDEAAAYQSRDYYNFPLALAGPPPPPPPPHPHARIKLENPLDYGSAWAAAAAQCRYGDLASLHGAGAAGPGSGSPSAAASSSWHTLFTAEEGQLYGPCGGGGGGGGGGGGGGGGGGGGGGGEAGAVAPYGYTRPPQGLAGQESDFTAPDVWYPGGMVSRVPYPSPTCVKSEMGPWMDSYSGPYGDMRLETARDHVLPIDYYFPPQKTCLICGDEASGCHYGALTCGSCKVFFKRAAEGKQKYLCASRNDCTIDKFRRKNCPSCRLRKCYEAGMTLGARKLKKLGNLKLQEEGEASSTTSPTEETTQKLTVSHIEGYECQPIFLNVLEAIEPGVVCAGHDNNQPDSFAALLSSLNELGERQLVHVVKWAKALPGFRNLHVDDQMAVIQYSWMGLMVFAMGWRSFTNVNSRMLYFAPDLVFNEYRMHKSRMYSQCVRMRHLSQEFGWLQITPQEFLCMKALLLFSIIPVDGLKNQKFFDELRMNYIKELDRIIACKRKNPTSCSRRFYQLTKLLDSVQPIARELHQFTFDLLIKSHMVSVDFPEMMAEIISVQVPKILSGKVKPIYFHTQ
Description: Antagonist activity at human androgen receptor expressed in human MDA-MB453 cells by luciferase reporter gene assay

In test [2] the target is T1, Androgen receptor. Put plainly: biochemical.
Description: Displacement of [3H]DHT from human cloned androgen receptor expressed in Sf9 cells
The subject of test [3] is Syrian golden hamster. Put plainly: Reduction of wax ester production in Syrian hamster ear topically dosed at 1% twice daily for 5 days per week for two weeks measured after 18 to 24 hrs of final dose by HPLC lipid analysis. Set-up: scale not given: the % may be the effect or the level left. In kind it is functional, Mesocricetus auratus.
Test [4] deals with Syrian golden hamster. Put plainly: Reduction of cholesterol ester production in Syrian hamster ear topically dosed at 1% twice daily for 5 days per week for two weeks measured after 18 to 24 hrs of final dose by HPLC lipid analysis. It is filed as functional, Mesocricetus auratus. Further details: scale not given: the % may be the effect or the level left.

Take `CCCCSc1ccc(C#N)c(C(F)(F)F)c1`: the results for the IC50 in test [1] and in test [2] were 838 nM and 49 nM, respectively.

`COc1cc(SCC2CCC2)ccc1C#N`: in test [2], half-maximal inhibition (IC50) was put at 441 nM.

Turning to `COc1cc(Sc2c(C)cc(C)cc2C)ccc1C#N`, the values for the IC50 in test [1] and in test [2] were 69 nM and 39 nM, respectively.

As for `COc1cc(Sc2c(C)cccc2C)ccc1C#N`, the figures for the Activity in test [3] and in test [4] were 66% and 45%, respectively. Also, the figures for the IC50 in test [1] and in test [2] were 30 nM and 43 nM, respectively.

`N#Cc1ccc(SCC2CCC2)cc1C(F)(F)F`: the IC50 in test [1] is 702 nM; in test [2] it was 63 nM.

In test [2], `COc1cc(SCCC(C)C)ccc1C#N` had an IC50 of 1730 nM.

Regarding `CCCSc1ccc(C#N)c(OC)c1`, the IC50 was more than 1000 nM in test [1] and 40 nM in test [2].

For the compound `N#Cc1ccc(SCC2CC2)cc1C(F)(F)F`, the Activity in test [3] amounted to 43%; in test [4], 35%. The IC50 is 133 nM in test [1] and 35 nM in test [2].

Compound `CC(C)(C)Sc1ccc(C#N)c(C(F)(F)F)c1` registered an IC50 in test [2] of 315 nM.

In turn, `Cc1cccc(C)c1Sc1ccc(C#N)c(C(F)(F)F)c1` yielded an IC50 in test [2] of 411 nM.

In the case of `Cc1ccccc1[S+]([O-])c1ccc(C#N)cc1Cl` (configuration not stated), in test [2], the half-inhibitory concentration (IC50) is more than 10000 nM.

As for `CCCSc1ccc(C#N)c(C(F)(F)F)c1`, the figures for the IC50 in test [1] and in test [2] were 11 nM and 23 nM, respectively.

Consider `COc1cc(Oc2ccccc2C)ccc1C#N`, for which the IC50 came to 81 nM in test [1] and 24 nM in test [2].

Regarding `Cc1ccccc1Sc1ccc(C#N)cc1Cl`, the values for the IC50 in test [1] and in test [2] were 78 nM and 43 nM, respectively.

Take `N#Cc1ccc(Sc2ccccc2F)cc1C(F)(F)F`: the Activity in test [3] was found to be 64%; in test [4], 50%. For the same compound, the IC50 in test [1] turned out to be 54 nM; in test [2], 184 nM.

For the compound `COc1cc(Oc2cccc(C)c2)ccc1C#N`, the IC50 in test [1] turned out to be 197 nM; in test [2], 57 nM.

Take `COc1cc(C#N)ccc1Oc1ccccc1C`: the figures for the IC50 in test [1] and in test [2] were 48 nM and 115 nM, respectively.

For `COc1cc(C#N)ccc1Oc1ccc(C)cc1`, 5210 nM corresponded to half-maximal inhibition in test [2] (IC50).

In the case of `N#Cc1ccc(SC2CCC2)cc1C(F)(F)F`, the IC50 came to 167 nM in test [1] and 194 nM in test [2].

Consider `Cc1ccccc1Sc1ccc(C#N)c(C(F)(F)F)c1`, for which the IC50 in test [1] worked out at 123 nM; in test [2], 225 nM.

On to `CCCCSc1ccc(C#N)c(OC)c1`, for which the IC50 was 66 nM in test [1] and 84 nM in test [2].

For `CC(C)Sc1ccc(C#N)c(C(F)(F)F)c1`, the Activity amounted to 46% in test [3] and 40% in test [4]. In addition, the IC50 turned out to be 89 nM in test [1] and 20 nM in test [2].

Take `COc1cc(SC(C)C)ccc1C#N`: the Activity is 59% in test [3] and 46% in test [4]. Also, the results for the IC50 in test [1] and in test [2] were 10 nM and 29 nM, respectively.

`COc1ccccc1Sc1ccc(C#N)c(C(F)(F)F)c1`: the IC50 in test [1] stood at 37 nM; in test [2], 56 nM.

Compound `CC1(C)C(=O)N(c2ccc(C#N)c(C(F)(F)F)c2)C(=O)N1CCCCO` [RU-58841] returned an Activity in test [3] of 95%.

Take `COc1cc(C#N)ccc1Oc1cccc(C)c1`: the IC50 in test [2] was found to be 353 nM.

For the compound `COc1cc(SCC2CC2)ccc1C#N`, the IC50 in test [1] was 55 nM; in test [2], 169 nM.

Consider `COc1cc(Oc2ccc(C)cc2)ccc1C#N`, for which the IC50 in test [1] was found to be 209 nM; in test [2], 200 nM.

As for `COc1cc(Sc2ccccc2OC)ccc1C#N`, the IC50 in test [1] is 35 nM; in test [2] it was 20 nM.

In turn, `CC(C)CCSc1ccc(C#N)c(C(F)(F)F)c1` came in with an IC50 in test [2] of 519 nM.

Consider `Cc1cc(C)c(Sc2ccc(C#N)c(C(F)(F)F)c2)c(C)c1`, for which the IC50 in test [2] was 1340 nM.
